Results as given in patent US20140030705A1, “SYSTEMS AND METHODS FOR ASSESSING BIOMOLECULE CHARACTERISTICS” (BioNano Genomics, Inc., priority 2010, published 2014).

System: human B cells
Details: 500 μM vs. 0 μM hydrogen peroxide

DNA size histograms of treated vs. untreated cells (FIG. 8A) (triplicate samples): clear shift to smaller fragment sizes
Compound: OO [hydrogen peroxide]
average size of the DNA and label incorporation density (FIG. 8B) (average molecule length and labels/100 kb): clear oxidative damage detection in the form of DSBs and SSBs
